# What was measured:
# Experiment in all cases: relative viability (nuclei count vs DMSO), 5 days (fraction); higher = more cells survive
# CX-5461 + Trametinib = compound: Cc1cnc(CNC(=O)c2c(=O)c3ccc(N4CCCN(C)CC4)nc3n3c2sc2ccccc23)cn1 [CX-5461] + CC(=O)Nc1cccc(-n2c(=O)n(C3CC3)c(=O)c3c(Nc4ccc(I)cc4F)n(C)c(=O)c(C)c32)c1 [Trametinib] (partner 0.02 µM)
# Summary of the method: (§1)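 Lung cancer cell lines in 1536-well plates were dosed by pin tool the day after seeding, either with one drug alone or with a fixed anchor-drug dose plus five library-drug doses (not always all listed) in √10 steps. After 5 days, cells were fixed and their nuclei stained in one step (final 0.05% Triton X-100, 1% formaldehyde, 1 ug/ml Hoechst), then counted on 4× images. Relative viability is the nuclei count in treated wells divided by that in vehicle wells. Values are medians of duplicate plates.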
# CX-5461 + Phenformin = compound: Cc1cnc(CNC(=O)c2c(=O)c3ccc(N4CCCN(C)CC4)nc3n3c2sc2ccccc23)cn1 [CX-5461] + N=C(N)NC(=N)NCCc1ccccc1 [Phenformin] (partner 250 µM)
# Summary of the method: as §1
# CX-5461 + Decitabine = compound: Cc1cnc(CNC(=O)c2c(=O)c3ccc(N4CCCN(C)CC4)nc3n3c2sc2ccccc23)cn1 [CX-5461] + Nc1ncn([C@H]2C[C@H](O)[C@@H](CO)O2)c(=O)n1 [Decitabine] (partner 2 µM)
# Summary of the method: as §1
# IMD-0354 + Navitoclax = compound: O=C(Nc1cc(C(F)(F)F)cc(C(F)(F)F)c1)c1cc(Cl)ccc1O [IMD-0354] + CC1(C)CCC(c2ccc(Cl)cc2)=C(CN2CCN(c3ccc(C(=O)NS(=O)(=O)c4ccc(N[C@H](CCN5CCOCC5)CSc5ccccc5)c(S(=O)(=O)C(F)(F)F)c4)cc3)CC2)C1 [Navitoclax] (partner 0.5 µM)
# Summary of the method: as §1
Cell Line,relative viability (CX-5461 + Trametinib; first compound 0.01 µM),relative viability (CX-5461 + Trametinib; first compound 0.03162 µM),relative viability (CX-5461 + Trametinib; first compound 0.1 µM),relative viability (CX-5461 + Trametinib; first compound 0.3162 µM),relative viability (CX-5461 + Trametinib; first compound 1 µM),relative viability (CX-5461 + Phenformin; first compound 0.01 µM),relative viability (CX-5461 + Phenformin; first compound 0.03162 µM),relative viability (CX-5461 + Phenformin; first compound 0.1 µM),relative viability (CX-5461 + Phenformin; first compound 1 µM),relative viability (CX-5461 + Decitabine; first compound 0.01 µM),relative viability (CX-5461 + Decitabine; first compound 0.03162 µM),relative viability (CX-5461 + Decitabine; first compound 0.1 µM),relative viability (CX-5461 + Decitabine; first compound 0.3162 µM),relative viability (CX-5461 + Decitabine; first compound 1 µM),relative viability (IMD-0354 + Navitoclax; first compound 0.04 µM),relative viability (IMD-0354 + Navitoclax; first compound 0.1265 µM),relative viability (IMD-0354 + Navitoclax; first compound 0.4 µM),relative viability (IMD-0354 + Navitoclax; first compound 1.265 µM),relative viability (IMD-0354 + Navitoclax; first compound 4 µM),relative viability (CX-5461 + Phenformin; first compound 0.3162 µM)
LOU-NH91,0.796,0.813,0.777,0.613,0.78,0.801,0.7,0.697,0.594,0.844,0.866,0.79,0.613,0.783,0.734,0.712,0.396,0.135,0.165,
NCI-H3122,0.21,0.213,0.205,0.248,0.186,0.385,0.343,0.316,0.248,0.407,0.387,0.354,0.515,0.417,1.01,1.09,0.829,0.987,0.155,0.378
HCC-827,0.509,0.583,0.617,0.494,0.582,0.406,0.426,0.444,0.359,0.339,0.337,0.342,0.282,0.3,0.983,0.955,0.892,0.759,0.293,0.406
SW 1573,0.496,0.513,0.126,0.566,0.16,0.421,0.369,0.151,0.121,0.474,0.41,0.114,0.392,0.214,1.15,0.948,0.421,0.571,0.102,0.303
NCI-H1975,0.39,0.317,0.367,0.395,0.298,0.44,0.401,0.377,0.2,0.404,0.36,0.424,0.447,0.276,1.28,1.19,0.528,0.44,0.184,0.415
NCI-H1651,0.824,0.791,0.87,0.79,0.778,0.322,0.26,,0.132,0.598,0.554,0.452,0.588,0.158,1.05,1.16,0.337,0.052,0.0654,0.251
NCI-H441,0.451,0.552,0.441,0.429,0.24,0.758,1.05,0.779,0.305,0.234,0.206,0.214,0.275,0.191,,0.473,0.38,0.164,0.217,0.86
LCLC-97TM1,0.199,0.216,0.176,0.193,0.213,0.397,0.479,0.415,0.384,0.225,0.233,0.238,0.208,0.229,,0.331,0.368,0.322,0.205,
NCI-H727,0.375,0.389,0.4,0.356,0.379,0.602,0.601,0.974,0.617,0.89,0.917,0.839,0.83,0.956,0.407,0.319,0.423,0.165,0.205,0.464
NCI-H1355,0.456,0.496,0.462,0.414,0.435,0.501,0.458,0.454,0.244,0.356,0.34,0.395,0.371,0.348,1.03,0.932,0.82,0.916,0.185,0.299
HOP-62,0.404,0.37,0.388,0.419,0.363,0.743,0.713,0.742,0.472,0.243,0.23,0.171,0.191,0.207,1.02,0.976,0.504,0.78,0.295,0.572
NCI-H2085,0.516,0.564,0.464,0.527,0.615,0.768,0.691,0.704,0.587,0.58,0.524,0.569,0.563,0.517,1.17,1.16,0.859,0.62,0.251,0.658

# — the supplement of paper PMC10307832
